Measurements as given in PMC9728974 (Science Advances, 2022).

What was measured:
[1] = target: T1, PmiR (Pseudomonas aeruginosa, UniProt Q9I5E1); assay: ITC; type: binding
T1 sequence (Q9I5E1 1-240): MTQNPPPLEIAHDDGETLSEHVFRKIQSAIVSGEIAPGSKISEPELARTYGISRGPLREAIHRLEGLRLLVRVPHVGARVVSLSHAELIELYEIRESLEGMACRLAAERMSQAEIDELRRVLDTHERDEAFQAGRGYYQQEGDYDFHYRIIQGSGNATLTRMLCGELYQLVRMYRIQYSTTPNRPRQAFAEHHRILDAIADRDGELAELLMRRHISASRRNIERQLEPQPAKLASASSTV

[2] = target: T2, truncated PmiR protein (amino acids 15 to 232) (Pseudomonas aeruginosa, UniProt Q9I5E1); assay: ITC; type: binding
T2 sequence (Q9I5E1 15-232): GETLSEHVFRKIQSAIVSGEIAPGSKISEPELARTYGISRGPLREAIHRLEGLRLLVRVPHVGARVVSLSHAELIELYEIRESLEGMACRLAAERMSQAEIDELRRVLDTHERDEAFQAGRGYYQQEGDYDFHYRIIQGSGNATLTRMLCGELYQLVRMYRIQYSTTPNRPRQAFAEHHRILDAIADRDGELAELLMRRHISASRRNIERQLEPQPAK

[3] = target: PmiR (PA0797), wild type (Pseudomonas aeruginosa PAO1); assay: SEC
[4] = target: T3, PrpB (Pseudomonas aeruginosa, UniProt Q9I5E2); assay: HPLC-UV, A214; type: biochemical; details: 1.0 mM; 1 mM tris-HCl pH 7.5
T3 sequence (Q9I5E2 1-298): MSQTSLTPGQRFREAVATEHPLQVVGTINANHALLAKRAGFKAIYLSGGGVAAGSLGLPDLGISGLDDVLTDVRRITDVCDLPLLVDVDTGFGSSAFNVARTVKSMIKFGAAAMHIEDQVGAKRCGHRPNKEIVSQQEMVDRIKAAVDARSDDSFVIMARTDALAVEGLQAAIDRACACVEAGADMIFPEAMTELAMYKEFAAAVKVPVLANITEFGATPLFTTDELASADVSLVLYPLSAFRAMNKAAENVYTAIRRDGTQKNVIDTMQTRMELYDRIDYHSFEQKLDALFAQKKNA

In the case of `C[C@](O)(C(=O)O)[C@H](CC(=O)O)C(=O)O` (racemic) [MIC], the Kd [1] is reported as 21.8 µM and the Kd [2] is reported as 62.9 µM.

For “PmiR (PA0797), wild type (natural protein)”, the stoichiometry N [3] was 2.

`CC(=O)C(=O)O` [pyruvate] was tested, and the “HPLC-UV, A214” value [4] was “PrpB, methylisocitrate lyase, was the last but critical enzyme to convert MIC to succinate and pyruvate”.

Work on `O=C(O)C[C@H](C(=O)O)[C@@H](O)C(=O)O` [isocitrate] yielded a Kd [1] of 64.1 µM.
